Tests used:
Myosin-IIIb = target: T1, Myosin-IIIb (Homo sapiens, UniProt Q8WXR4)
T1 sequence (Q8WXR4 whole entry): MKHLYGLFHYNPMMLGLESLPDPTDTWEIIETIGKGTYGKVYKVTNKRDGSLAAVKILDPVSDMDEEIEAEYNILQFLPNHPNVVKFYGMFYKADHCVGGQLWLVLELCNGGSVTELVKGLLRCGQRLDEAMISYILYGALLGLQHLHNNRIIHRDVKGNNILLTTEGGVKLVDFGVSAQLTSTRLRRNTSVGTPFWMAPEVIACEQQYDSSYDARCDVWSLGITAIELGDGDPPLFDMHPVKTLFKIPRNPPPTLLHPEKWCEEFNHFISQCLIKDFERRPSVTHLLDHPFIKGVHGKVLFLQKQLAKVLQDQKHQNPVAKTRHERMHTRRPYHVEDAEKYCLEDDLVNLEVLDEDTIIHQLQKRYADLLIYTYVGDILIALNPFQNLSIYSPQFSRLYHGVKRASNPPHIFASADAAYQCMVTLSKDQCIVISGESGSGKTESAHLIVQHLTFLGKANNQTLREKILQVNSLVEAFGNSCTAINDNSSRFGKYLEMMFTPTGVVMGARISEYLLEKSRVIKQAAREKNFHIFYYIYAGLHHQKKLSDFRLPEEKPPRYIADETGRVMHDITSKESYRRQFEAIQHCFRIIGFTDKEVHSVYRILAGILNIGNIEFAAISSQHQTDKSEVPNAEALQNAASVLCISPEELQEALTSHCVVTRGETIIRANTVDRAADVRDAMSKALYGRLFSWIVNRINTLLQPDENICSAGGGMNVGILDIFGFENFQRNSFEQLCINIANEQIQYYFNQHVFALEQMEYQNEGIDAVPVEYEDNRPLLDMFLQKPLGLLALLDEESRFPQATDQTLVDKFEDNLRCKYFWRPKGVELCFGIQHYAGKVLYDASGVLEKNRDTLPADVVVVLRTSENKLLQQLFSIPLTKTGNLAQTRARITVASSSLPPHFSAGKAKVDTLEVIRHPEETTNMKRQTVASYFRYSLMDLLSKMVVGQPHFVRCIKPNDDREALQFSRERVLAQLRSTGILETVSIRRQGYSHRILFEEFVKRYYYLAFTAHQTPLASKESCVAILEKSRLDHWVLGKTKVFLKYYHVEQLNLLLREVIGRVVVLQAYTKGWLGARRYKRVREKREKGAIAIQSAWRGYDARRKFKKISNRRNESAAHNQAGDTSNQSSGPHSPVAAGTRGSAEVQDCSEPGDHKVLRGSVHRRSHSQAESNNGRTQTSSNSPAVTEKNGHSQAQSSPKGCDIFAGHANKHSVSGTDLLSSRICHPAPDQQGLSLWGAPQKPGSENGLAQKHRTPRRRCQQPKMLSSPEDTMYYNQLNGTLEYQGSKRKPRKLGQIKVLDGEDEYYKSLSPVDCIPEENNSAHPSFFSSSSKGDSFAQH

[1] = target: Serine/threonine-protein kinase MRCK alpha (Homo sapiens, UniProt Q5VT25)
[2] = target: Tyrosine-protein kinase ABL1 (Homo sapiens, UniProt P00519, H396P)
[3] = target: Mast/stem cell growth factor receptor Kit (Homo sapiens, UniProt P10721, T670I/V559D)
[4] = target: T2, Serine/threonine-protein kinase LATS1 (Homo sapiens, UniProt O95835)
T2 sequence (O95835 whole entry): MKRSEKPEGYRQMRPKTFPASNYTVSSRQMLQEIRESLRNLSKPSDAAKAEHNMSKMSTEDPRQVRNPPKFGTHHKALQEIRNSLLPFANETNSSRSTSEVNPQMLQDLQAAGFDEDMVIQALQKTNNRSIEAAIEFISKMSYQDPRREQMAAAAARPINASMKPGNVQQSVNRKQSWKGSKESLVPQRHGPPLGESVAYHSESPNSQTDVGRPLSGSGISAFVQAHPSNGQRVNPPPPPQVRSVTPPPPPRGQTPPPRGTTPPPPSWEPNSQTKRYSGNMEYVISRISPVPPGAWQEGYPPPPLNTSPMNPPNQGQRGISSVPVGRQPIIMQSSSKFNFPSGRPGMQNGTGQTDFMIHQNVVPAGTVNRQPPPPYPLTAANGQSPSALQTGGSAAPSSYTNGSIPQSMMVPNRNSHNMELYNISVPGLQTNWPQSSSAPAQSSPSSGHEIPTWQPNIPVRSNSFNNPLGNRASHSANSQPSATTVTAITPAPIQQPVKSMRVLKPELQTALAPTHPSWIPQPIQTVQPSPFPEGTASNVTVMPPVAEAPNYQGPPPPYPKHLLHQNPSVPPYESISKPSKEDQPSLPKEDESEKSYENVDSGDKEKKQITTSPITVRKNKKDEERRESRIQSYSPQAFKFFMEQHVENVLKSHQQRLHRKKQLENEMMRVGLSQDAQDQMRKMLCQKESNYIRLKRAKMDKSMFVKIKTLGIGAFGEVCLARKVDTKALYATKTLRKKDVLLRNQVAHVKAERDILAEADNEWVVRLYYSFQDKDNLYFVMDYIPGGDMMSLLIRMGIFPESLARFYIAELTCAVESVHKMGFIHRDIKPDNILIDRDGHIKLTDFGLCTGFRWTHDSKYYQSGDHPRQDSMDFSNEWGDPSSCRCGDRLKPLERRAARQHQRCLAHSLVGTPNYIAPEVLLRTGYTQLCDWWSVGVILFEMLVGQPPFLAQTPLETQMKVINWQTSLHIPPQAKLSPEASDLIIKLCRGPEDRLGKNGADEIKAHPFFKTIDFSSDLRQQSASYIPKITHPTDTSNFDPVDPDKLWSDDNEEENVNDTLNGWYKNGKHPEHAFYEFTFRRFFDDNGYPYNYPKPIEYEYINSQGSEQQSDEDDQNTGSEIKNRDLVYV

Measured: Kd

COCC(=O)NC/C=C/c1ccc2ncnc(Nc3ccc(Oc4ccc(C)nc4)c(C)c3)c2c1 [CP-724714]
> 10 µM: all assays above

NC(=O)c1ccc(-c2nc(-c3ccc4c(c3)OCO4)c(-c3ccccn3)[nH]2)cc1 [SB-431542]
> 10 µM: all assays above

Nc1nc(Nc2ccc(S(N)(=O)=O)cc2)nn1C(=O)c1c(F)cccc1F [JNJ-7706621]
> 10 µM: Myosin-IIIb | [1] | [4]

CCOc1cc2ncc(C#N)c(Nc3ccc(F)c(Cl)c3)c2cc1NC(=O)/C=C/CN(C)C [PELITINIB]
not listed: [2]
> 10 µM: all other assays above

Oc1ccc(-c2nc(-c3ccncc3)c(-c3ccc(F)cc3)[nH]2)cc1 [SB-202190]
> 10 µM: all assays above

Source: ChEMBL document CHEMBL1150977, “A quantitative analysis of kinase inhibitor selectivity” (Nat Biotechnol, 2008)
